Measurements taken from ChEMBL document CHEMBL1201862, “PubChem BioAssay data set” (2004).
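Values below derive from 48-hour exposures of cells grown in 96-well plates, with endpoints linearly interpolated between the two concentrations bracketing the appropriate inhibition level. Here, GI50 denotes the concentration required for 50% inhibition of growth.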 Calls of active or inactive are those of the source. Cut-off read from the data, not from the text of the source: active = GI50 up to about 1.1 µM and inactive = higher.

What was measured:
Assay in all cases: NCI tumour cell line growth inhibition, 48 h
[1] = system: SNB-75
[2] = system: SN12C
[3] = system: HCT-15
[4] = system: UACC-62
[5] = system: U-251
[6] = system: CAKI-1
[7] = system: NCI/ADR-RES
[8] = system: M14
[9] = system: BT-549
[10] = system: ACHN
[11] = system: MCF7
[12] = system: HCT-116
[13] = system: SF-268
[14] = system: HL-60
[15] = system: A549
[16] = system: RPMI-8226
[17] = system: CCRF-CEM
[18] = system: OVCAR-5
[19] = system: T47D
[20] = system: MDA-MB-435
[21] = system: NCI-H23
[22] = system: MDA-MB-231
[23] = system: MOLT-4
[24] = system: HCC 2998
[25] = system: SR
[26] = system: MDA-N
[27] = system: TK-10
[28] = system: OVCAR-8
[29] = system: UACC-257
[30] = system: HT-29
[31] = system: Malme-3M
[32] = system: EKVX
[33] = system: A498
[34] = system: HOP-92
[35] = system: HOP-62
[36] = system: SW-620
[37] = system: SK-MEL-2
[38] = system: 786-0
[39] = system: OVCAR-3
[40] = system: K562
[41] = system: UO-31
[42] = system: PC-3
[43] = system: SF-295
[44] = system: SNB-19
[45] = system: NCI-H522
[46] = system: NCI-H460
[47] = system: RXF 393
[48] = system: OVCAR-4
[49] = system: IGROV-1
[50] = system: LOX IMVI
[51] = system: DU-145
[52] = system: Hs-578T
[53] = system: SK-MEL-5
[54] = system: SK-OV-3
[55] = system: SF-539
[56] = system: SK-MEL-28
[57] = system: COLO 205
[58] = system: NCI-H226
[59] = system: KM12

Measured: GI50

O=C1CSC(c2c(O)ccc3ccccc23)N1n1c(S)nnc(/C=C/c2c(O)ccc3ccccc23)c1=O (stereo not drawn)
0.327 µM: [3]
inactive: [1] 1.5 µM | [5] 1.33 µM | [15] 1.32 µM | [16] 1.26 µM | [18] 1.99 µM | [21] 1.98 µM | [23] 17.9 µM | [26] 4.05 µM | [27] 1.18 µM | [29] 1.43 µM | [30] 1.27 µM | [31] 2.22 µM | [32] 6.15 µM | [33] 2.76 µM | [34] 16.3 µM | [35] 4.84 µM | [37] 1.17 µM | [42] 3.18 µM | [43] 6.71 µM | [44] 1.69 µM | [45] 1.14 µM | [47] 1.45 µM | [49] 2.28 µM | [50] 1.44 µM | [51] 2.01 µM | [52] 44.4 µM
active: [2] 0.752 µM | [4] 0.705 µM | [6] 0.489 µM | [7] 0.851 µM | [8] 0.935 µM | [9] 0.908 µM | [10] 0.466 µM | [11] 0.451 µM | [12] 0.359 µM | [13] 0.771 µM | [14] 0.232 µM | [17] 0.244 µM | [19] 0.59 µM | [20] 0.966 µM | [22] 0.63 µM | [24] 1.11 µM | [25] 0.51 µM | [28] 0.467 µM | [36] 0.753 µM | [38] 0.662 µM | [39] 0.387 µM | [40] 0.521 µM | [41] 0.92 µM | [46] < 0.01 µM | [48] 0.583 µM

CC(=N/N=C/c1ccccn1)/C(C)=N/N=C(C)/C(C)=N/N=C(C)/C(C)=N/N=C(C)/C(C)=N\N=C\c1ccccn1
inactive: [1] > 100 µM | [2] > 100 µM | [53] > 100 µM | [54] > 100 µM | [55] > 100 µM | [5] > 100 µM | [6] > 100 µM | [7] > 100 µM | [8] > 100 µM | [9] > 100 µM | [56] > 100 µM | [10] > 100 µM | [11] > 100 µM | [12] > 100 µM | [13] > 100 µM | [14] 49.1 µM | [15] > 100 µM | [16] > 100 µM | [18] > 100 µM | [19] > 100 µM | [20] > 100 µM | [21] > 100 µM | [57] > 100 µM | [22] > 100 µM | [58] > 100 µM | [24] > 100 µM | [25] > 100 µM | [26] > 100 µM | [27] > 100 µM | [28] > 100 µM | [59] > 100 µM | [29] > 100 µM | [30] > 100 µM | [31] > 100 µM | [32] > 100 µM | [33] > 100 µM | [34] > 100 µM | [35] > 100 µM | [36] > 100 µM | [37] > 100 µM | [38] > 100 µM | [39] > 100 µM | [40] > 100 µM | [41] > 100 µM | [42] > 100 µM | [43] > 100 µM | [44] > 100 µM | [45] > 100 µM | [46] > 100 µM | [47] > 100 µM | [48] > 100 µM | [49] > 100 µM | [50] > 100 µM | [51] > 100 µM | [52] > 100 µM
> 100 µM: [3]
